The values that follow come from BindingDB's records for doi:10.1016/s0960-894x(03)00588-2 (University of California Irvine, 2003).

Assay [1] in a line: Inhibitory concentration against protein phosphatase 1 (PP1) using pNPP assay.
Assay [2] can be described thus: Inhibitory concentration against protein phosphatase 1 (PP1) using phosphorylase-a assay.

As usually defined, the IC50 is the concentration at which inhibition is half-maximal. A high value points to weaker potency. `CO[C@@H](Cc1ccccc1)[C@@H](C)/C=C(C)/C=C/[C@H](NC(C)=O)[C@H](C)C(=O)N1C[C@H](O[Si](C(C)C)(C(C)C)C(C)C)C[C@@H]1C(=O)O` [(2R,4R)-1-((4E,6E)-(2S,3S,8S,9S)-3-Acetylamino-9-methoxy-2,6,8-trimethyl-10-phenyl-deca-4,6-dienoyl)-4-triisopropylsilanyloxy-pyrrolidine-2-carboxylic acid] displayed an IC50 in assay [1] greater than 100 µM.
As for `CO[C@@H](Cc1ccccc1)[C@@H](C)/C=C(C)/C=C/[C@H](NC(C)=O)[C@H](C)C(=O)N1C[C@H](C(=O)O)C[C@@H]1C(=O)O` [(2R,4R)-1-((4E,6E)-(2S,3S,8S,9S)-3-Acetylamino-9-methoxy-2,6,8-trimethyl-10-phenyl-deca-4,6-dienoyl)-pyrrolidine-2,4-dicarboxylic acid], the IC50 in assay [1] was greater than 100 µM.
Turning to `CO[C@@H](Cc1ccccc1)[C@@H](C)/C=C(C)/C=C/[C@H](NC(C)=O)[C@H](C)C(=O)N1C[C@@H](C(=O)O)C[C@@H]1C(=O)O` [(2R,4S)-1-((4E,6E)-(2S,3S,8S,9S)-3-Acetylamino-9-methoxy-2,6,8-trimethyl-10-phenyl-deca-4,6-dienoyl)-pyrrolidine-2,4-dicarboxylic acid], the IC50 in assay [1] was greater than 100 µM.
Same read-out and setting: in the case of `CO[C@@H](Cc1ccccc1)[C@@H](C)/C=C(C)/C=C/[C@H](NC(C)=O)[C@H](C)C(=O)N1[C@@H](C(=O)O)CC[C@H]1C(=O)O` [(2R,5S)-1-((4E,6E)-(2S,3S,8S,9S)-3-Acetylamino-9-methoxy-2,6,8-trimethyl-10-phenyl-deca-4,6-dienoyl)-pyrrolidine-2,5-dicarboxylic acid] it was greater than 50 µM; in that of `CO[C@@H](Cc1ccccc1)[C@@H](C)/C=C(C)/C=C/[C@H](NC(C)=O)[C@H](C)C(=O)N1C[C@H](C(=O)O)C[C@H]1C(=O)O` [(2S,4R)-1-((4E,6E)-(2S,3S,8S,9S)-3-Acetylamino-9-methoxy-2,6,8-trimethyl-10-phenyl-deca-4,6-dienoyl)-pyrrolidine-2,4-dicarboxylic acid], greater than 100 µM; in that of `CO[C@@H](Cc1ccccc1)[C@@H](C)/C=C(C)/C=C/[C@H](NC(C)=O)[C@H](C)C(=O)N1[C@H](C(=O)O)CC[C@H]1C(=O)O` [(2S,5S)-1-((4E,6E)-(2S,3S,8S,9S)-3-Acetylamino-9-methoxy-2,6,8-trimethyl-10-phenyl-deca-4,6-dienoyl)-pyrrolidine-2,5-dicarboxylic acid], greater than 50 µM.
For the compound `CO[C@@H](Cc1ccccc1)[C@@H](C)/C=C(C)/C=C/[C@H](NC(C)=O)[C@H](C)C(=O)NCC(=O)O` [((4E,6E)-(2S,3S,8S,9S)-3-Acetylamino-9-methoxy-2,6,8-trimethyl-10-phenyl-deca-4,6-dienoylamino)-acetic acid], in assay [2], the IC50 is 5.6 µM.
For `COC(=O)[C@H]1CCCN1C(=O)[C@@H](C)[C@H](/C=C/C(C)=C/[C@H](C)[C@H](Cc1ccccc1)OC)NC(C)=O` [(R)-1-((4E,6E)-(2S,3S,8S,9S)-3-Acetylamino-9-methoxy-2,6,8-trimethyl-10-phenyl-deca-4,6-dienoyl)-pyrrolidine-2-carboxylic acid methyl ester], the concentration for half-maximal inhibition (IC50) in assay [1] was greater than 100 µM.
Take `CO[C@@H](Cc1ccccc1)[C@@H](C)/C=C(C)/C=C/[C@H](NC(C)=O)[C@H](C)C(=O)N1CCC[C@@H]1C(=O)O` [(R)-1-((4E,6E)-(2S,3S,8S,9S)-3-Acetylamino-9-methoxy-2,6,8-trimethyl-10-phenyl-deca-4,6-dienoyl)-pyrrolidine-2-carboxylic acid]: the IC50 in assay [1] was greater than 55 µM.
In turn, `CC(=O)N[C@@H](/C=C/C(C)=C/CCCc1ccccc1)[C@H](C)C(=O)N[C@H](C)C(=O)O` [(R)-2-((4E,6E)-(2S,3S)-3-Acetylamino-2,6-dimethyl-10-phenyl-deca-4,6-dienoylamino)-propionic acid] gave an IC50 in assay [1] greater than 100 µM.
Still for that read-out and setting: then `CC(=O)N[C@@H](/C=C/C(C)=C/c1ccc(-c2ccccc2)cc1)[C@H](C)C(=O)N[C@H](C)C(=O)O` [(R)-2-((4E,6E)-(2S,3S)-3-Acetylamino-7-biphenyl-4-yl-2,6-dimethyl-hepta-4,6-dienoylamino)-propionic acid], with greater than 100 µM.
For `CO[C@@H](Cc1ccccc1)[C@@H](C)/C=C(C)/C=C/[C@H](NC(C)=O)[C@H](C)C(=O)N[C@H](C)C(=O)O` [(R)-2-((4E,6E)-(2S,3S,8S,9S)-3-Acetylamino-9-methoxy-2,6,8-trimethyl-10-phenyl-deca-4,6-dienoylamino)-propionic acid], the IC50 in assay [1] came out at 25 µM; in assay [2], 1 µM.
In assay [1], `CC(=O)N[C@@H](/C=C/C(C)=C/c1ccccc1Cc1ccccc1)[C@H](C)C(=O)N[C@H](C)C(=O)O` [(R)-2-[(4E,6E)-(2S,3S)-3-Acetylamino-7-(2-benzyl-phenyl)-2,6-dimethyl-hepta-4,6-dienoylamino]-propionic acid] returned an IC50 greater than 100 µM.
In the case of `COC(=O)[C@@H]1CCCN1C(=O)[C@@H](C)[C@H](/C=C/C(C)=C/[C@H](C)[C@H](Cc1ccccc1)OC)NC(C)=O` [(S)-1-((4E,6E)-(2S,3S,8S,9S)-3-Acetylamino-9-methoxy-2,6,8-trimethyl-10-phenyl-deca-4,6-dienoyl)-pyrrolidine-2-carboxylic acid methyl ester], the IC50 in assay [1] is greater than 100 µM.
On the same count and under the same terms, then `CO[C@@H](Cc1ccccc1)[C@@H](C)/C=C(C)/C=C/[C@H](NC(C)=O)[C@H](C)C(=O)N1CCC[C@H]1C(=O)O` [(S)-1-((4E,6E)-(2S,3S,8S,9S)-3-Acetylamino-9-methoxy-2,6,8-trimethyl-10-phenyl-deca-4,6-dienoyl)-pyrrolidine-2-carboxylic acid], with greater than 100 µM.
In turn, `CO[C@@H](Cc1ccccc1)[C@@H](C)/C=C(C)/C=C/[C@H](NC(C)=O)[C@H](C)C(=O)N[C@@H](C)C(=O)O` [(S)-2-((4E,6E)-(2S,3S,8S,9S)-3-Acetylamino-9-methoxy-2,6,8-trimethyl-10-phenyl-deca-4,6-dienoylamino)-propionic acid] yielded a half-inhibitory concentration (IC50) in assay [2] of 170 µM.
Consider `CO[C@@H](Cc1ccccc1)[C@@H](C)/C=C(C)/C=C/[C@H](NC(C)=O)[C@H](C)C(=O)N1CCCC1` [N-[(2E,4E)-(1S,6S,7S)-7-Methoxy-4,6-dimethyl-1-((S)-1-methyl-2-oxo-2-pyrrolidin-1-yl-ethyl)-8-phenyl-octa-2,4-dienyl]-acetamide], for which the IC50 in assay [1] is greater than 100 µM.
Take `CO[C@@H](Cc1ccccc1)[C@@H](C)/C=C(C)/C=C/[C@H](NC(C)=O)[C@H](C)C(=O)N(CC(=O)O)CC(=O)O` [[((4E,6E)-(2S,3S,8S,9S)-3-Acetylamino-9-methoxy-2,6,8-trimethyl-10-phenyl-deca-4,6-dienoyl)-carboxymethyl-amino]-acetic acid]: in assay [1], the IC50 was greater than 100 µM.
